Values of other authors in patent publication US7271157B2, “A1 adenosine receptor agonists” (CV Therapeutics, Inc., priority 2004, dated 2007).
Values belong to the compound of their own block, whether it stands above or below them.

Experiments:
[1] = target: T1, A1-adenosine receptor (Homo sapiens, UniProt P30542)
T1 sequence (P30542 1-326): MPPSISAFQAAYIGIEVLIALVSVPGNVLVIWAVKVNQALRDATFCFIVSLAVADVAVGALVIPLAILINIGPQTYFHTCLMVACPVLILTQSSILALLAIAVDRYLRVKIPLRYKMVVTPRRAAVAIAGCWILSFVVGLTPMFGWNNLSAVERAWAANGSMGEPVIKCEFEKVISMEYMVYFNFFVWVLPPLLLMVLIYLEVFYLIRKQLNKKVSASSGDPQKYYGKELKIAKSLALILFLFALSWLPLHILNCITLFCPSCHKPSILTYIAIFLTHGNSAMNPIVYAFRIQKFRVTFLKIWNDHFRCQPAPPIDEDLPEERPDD

[2] = tested on: seizures induced by DMCM; conditions: experimental models of epilepsy

Compound: OC1CCCC1Nc1ncnc2c1ncn2[C@@H]1O[C@H](CSc2ccccc2F)[C@@H](O)[C@H]1O (mixture of isomers) [(4S,5S,2R,3R)-5-[(2-fluorophenylthio)methyl]-2-{6-[(2-hydroxycyclopentyl)amino]-purin-9-yl}oxolane-3,4-diol]
- A1-adenosine receptor agonist character and selectivity [1]: highly selective partial A1-adenosine receptor agonist

- half-life: less than 10 sec
Compound: Nc1ncnc2c1ncn2[C@@H]1O[C@H](CO)[C@@H](O)[C@H]1O [adenosine]

Compound: Cc1ccccc1CNc1ncnc2c1ncn2[C@@H]1O[C@H](CO)[C@@H](O)[C@H]1O [metrifudil]
- anticonvulsant activity against DMCM-induced seizures [2]: potent anticonvulsant
